This note sets out measurements from US20060116397A1, “Use of saquinavir as a radiation sensitizer” (The Trustees of the University of Pennsylvania, priority 2004, published 2006).

For series [1], the system named is cells in tissue culture. As to the kind of experiment: Toxicity to cells in tissue culture. In kind it is cell-based.
The subject of series [2] is Akt. The series can be described thus: Western blot of Akt phosphorylation in white blood cells of HIV patients. In kind it is in vivo, human. As to conditions: HIV patients taking saquinavir vs HIV patients not using saquinavir. From the text:
As a proof of principle, it was examined whether there was down-regulation of Akt in HIV patients who are being actively treated with HPIs. Blood samples were obtained from HIV patients on courses of various combinations of drugs. WBCs were isolated and stained for Akt using a Western Blot.
On the technique in general: Immunoblotting shows a protein as a band on a membrane.

Series [3] deals with Akt. As to the kind of experiment: Western blot analysis of Akt phosphorylation in SQ2OB head-and-neck cancer cell line. In kind it is cell-based, human. The following applies: SQ2OB cells, 25 μM saquinavir, within 20 minutes, Western blot (FIG. 3). The text has this:
Using Western blot analysis, a human head-and-neck cancer cell line, SQ2OB, containing a constitutively-active EGFR receptor and thus, increased signaling through PI3K, was examined for Akt phosphorylation.

In series [4] the test system is T24 cells. The series can be described thus: Clonogenic assay, radiation sensitization (surviving fraction after 2 Gy). In kind it is cell-based. Here is the method: Cultures of cells in log growth phase were counted and plated in 60-mm dishes containing 4 ml of media. The cells were allowed to attach and saquinavir was added to cultures at least one hour prior to irradiation. Cells were irradiated with a Mark I cesium irradiator (J. L. Shepherd, San Fernando, Calif.) at a dose rate of 1.6 Gy/min. Colonies were stained and counted 10-14 days after irradiation. A light box was used to assist in counting colonies. The surviving fraction was calculated by dividing the number of colonies formed by the number of cells plated times plating efficiency (Table 1). Each point value represents the mean surviving fraction from at least six replicate dishes.

Structures are written as SMILES. “Also recorded” adds a separate entry of the source.

In the case of `CC(C)(C)NC(=O)[C@@H]1C[C@@H]2CCCC[C@@H]2CN1C[C@@H](O)[C@H](Cc1ccccc1)NC(=O)[C@H](CC(N)=O)NC(=O)c1ccc2ccccc2n1` [saquinavir], the “toxicity to cells in tissue culture” value in series [1] was “toxic to cells in tissue culture”. Further, in series [2], the “Akt phosphorylation in white blood cells” value is given as “decreased Akt phosphorylation; also recorded: lower levels of Akt phosphorylation”. Moreover, the “Akt phosphorylation at Ser 473 and at Thr 308” value in series [3] is “down-regulation of Akt phosphorylation at Ser 473 and at Thr 308”. Also, the “difference in cell kill (enhanced kill) vs radiation alone” value in series [4] (T24, 30 fractions of 2 Gy) is listed as roughly 5 log. For the same compound, the “surviving fraction after 2 Gy (SF2)” value in series [4] (T24 cells, 10 μM saquinavir + 2 Gy radiation, control 56%) came out at 36%. Besides, in series [4] (T24 cells, saquinavir added at least one hour prior to irradiation, colonies counted 10-14 days after, mean of at least six dishes, control 0.560 +/− 0.061), the “saquinavir SF2” value is 0.380 +/− 0.168.
